Test results published in article PMC12592420, “A mismatch in enzyme-redox partnerships underlies divergent cytochrome P450 activities between human hepatocytes and microsomes” (Communications Biology, 2025).
Where “and” joins values, the source holds several entries; their conditions need not be identical. Equal entries are not always repeated.

Key:
[1] = Savolitinib metabolite (M2, M4) formation in NADPH-HLM (with BSA or cytosol where stated); format: in vitro ADME, human; parameters: [M4] / M2 average / M4 average: unit not given here; details: 60min; for M4 average: average of duplicate (Suppl. Fig. 1); for [M4]: savolitinib 1 µM, single measurements (Suppl. Fig. 1)
[2] = Incubations in HLM + NADPH from the same donor pool as S9; format: in vitro ADME, human; details: for microsomal CLint at 1 µM: human, human liver microsomes, pH 7.4, Midazolam CLint
Excerpt: Liver S9 (lot 1810001, pool of 50, Xenotech) and HLM (pool of 50, lot 1810003, Xenotech) from the same pool of donors were purchased from Xenotech.

recombinant CYP3A4-POR = molecular target: T1, recombinant CYP3A4-POR (Homo sapiens, UniProt P08684); experiment: Savolitinib incubation with recombinant CYP3A4-POR Supersomes; format: in vitro ADME; details: CYP3A4 (CYP13A4 [sic]), savolitinib 1 µM, 1 h (Fig. 2c)
T1 construct: purchased 456202
T1 sequence (P08684 whole entry): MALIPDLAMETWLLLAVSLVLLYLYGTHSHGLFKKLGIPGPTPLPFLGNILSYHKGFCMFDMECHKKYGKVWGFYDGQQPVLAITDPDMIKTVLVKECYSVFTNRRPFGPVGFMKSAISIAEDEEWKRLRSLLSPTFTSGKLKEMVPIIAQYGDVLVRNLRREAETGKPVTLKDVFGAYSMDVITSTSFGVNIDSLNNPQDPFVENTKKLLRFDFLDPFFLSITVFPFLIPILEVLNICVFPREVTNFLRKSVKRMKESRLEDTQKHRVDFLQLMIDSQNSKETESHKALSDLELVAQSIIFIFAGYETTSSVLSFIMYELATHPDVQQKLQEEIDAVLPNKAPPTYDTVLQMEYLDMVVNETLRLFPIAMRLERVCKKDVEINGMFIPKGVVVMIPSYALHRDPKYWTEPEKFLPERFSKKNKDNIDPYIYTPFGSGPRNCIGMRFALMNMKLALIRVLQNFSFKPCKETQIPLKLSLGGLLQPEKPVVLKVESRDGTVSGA
Protocol: For detailed comparisons between recombinant CYP1A2 and CYP3A4 (Fig. 2B, C), Supersomes were used (CYP1A2, catalogue number 456203, CYP3A4, catalogue number 456202). […] The concentration of savolitinib metabolites M2 and M4 formed were determined from standard curves obtained by spiking the appropriate concentrations of M2 and M4 into recombinant enzymes (in the absence of NADPH) and processing in the same way as the samples.

[3] = Metabolism of savolitinib in lysed hepatocytes + NADPH; format: in vitro ADME, human; details: savolitinib 1 µM, HH lysate + NADPH
Protocol: HH in Leibovitz buffer were centrifuged at 11,250 × g for 5 min to pellet the cells. Taking care not to disturb the pellet, all the media was removed using a pipette. Ice-cold water was added and the mixture vortex-mixed to resuspend the cells and stored at −80 °C for 5 min followed by sonication for 10 min to lyse the cells. The resuspended lysate final volume was equivalent to a final cell concentration of 1 million cells/mL (the same concentration used for intact cells experiments) in […] phosphate buffer pH 7.4 and NADPH (final 1 mM). After pre-incubating for 5 min at 37 °C, the reaction (metabolism of savolitinib) in the lysate was initiated by adding savolitinib (final 1 µM). […] Authentic standards (M2 and M4) were spiked into hepatocyte lysate and used to construct standard curves. The acetonitrile/hepatocyte lysate mixtures were centrifuged at 3000 × g for 10 min and 50 µl of the supernatant was mixed with 300 µl of water and 3 µL was injected into the mass spectrometer for analysis by multiple reaction monitoring.

rat hepatocytes = experiment: Free fraction in rat hepatocytes as surrogate for HH, equilibrium dialysis; format: in vitro ADME; details: fraction unbound, measured or estimated by in silico models of Fuinc
in vitro [4] = details: human, hepatocytes
Protocol: Cryopreserved HH prepared from a mixed-gender pool of twenty donors (product X008000, lot EEO, BIOIVT), ten-donors (product S01205, lot MTJ, BIOIVT), ten donors (product S01205 lot LYB, BIOIVT) were utilised in the experiments. Cryopreserved HH were rapidly thawed in a water bath set at 37 °C and added to Leibovitz media that had been pre-warmed in the water bath. The suspension of cells was mixed gently and centrifuged at 40 × g for 4 min at room temperature. Excess media was removed, and the cells were re-suspended in 5 mL of fresh Leibovitz media. The cells were counted using an automated cell counter (Cellometer).

[5] = Free fraction in HLM incubation, equilibrium dialysis; format: in vitro ADME, human; details: fraction unbound, measured or estimated by in silico models of Fuinc
in vitro [6] = details: human, Caco-2
[7] = Midazolam CLint in HLM with NADPH:NADH (1:1); format: in vitro ADME, human; details: cofactor NADH:NADPH (1:1) (Fig. 5b)
[8] = CLint in NADPH-supplemented human liver microsomes; details: for microsomal CLint at 1 µM / CLint scaled at 1 µM: human, microsomes
Protocol: (§1) Calculation and scaling of CLint,u was done using the equation below and 45 mg of microsomal protein per gram of liver. HLMCLint,u=ln2/x1/t1/2(min)xmLincubation/mgmicrosomalproteinx45mgmicrosomalprotein/gliverx21gliver/kg/Fuinc

[9] = molecular target: T2, recombinant human CYP3A4-POR containing cytochrome b5 (Homo sapiens, UniProt P08684); experiment: Midazolam CLint by canonical recombinant CYP3A4-POR with cytochrome b5, with and without gefitinib; format: in vitro ADME; details: CYP3A4_POR, NADPH, listed as Mid
T2 construct: purchased BioIVT (named in b64 for the custom bactosomes); host or cells: bactosomes (E. coli is stated for the panel, not for this product)
T2 sequence (P08684 whole entry): as above
Protocol: (§2) As the reaction-rate was much higher, aliquots were taken at 0, 1, 2, 3, 4 and 5 min.

[10] = molecular target: T3, recombinant human CYP3A4-Cytb5R containing cytochrome b5 (Homo sapiens, UniProt P08684); experiment: Midazolam CLint by non-canonical recombinant CYP3A4-Cytb5R with cytochrome b5, with and without gefitinib; format: in vitro ADME; details: CYP3A4_Cytb5R, NADPH, listed as Mid
T3 construct: purchased BioIVT (custom synthesis) CE00001(CYP3A4), batch CPD034-3A4; host or cells: bactosomes
T3 sequence (P08684 whole entry): as above
Protocol: As commercial recombinant human CYPs co-express the individual CYP and reductase with an option to include cytochrome b5. A custom synthesis co-expressing CYP3A4 or CYP1A2 and Cytb5R plus cytochrome b5 was, therefore, ordered from BioIVT and the bactosomes were compared with canonical CYP-POR enzymes plus cytochrome b5.
as §2

[11] = CLint in NADH-supplemented human liver microsomes; details: for microsomal CLint at 1 µM / CLint scaled at 1 µM: human, microsomes
Protocol: as §1

[12] = Incubations in human liver S9 + NADPH (same donor pool as HLM); format: in vitro ADME; details: human, human liver S9, pH 7.4, Midazolam CLint
[13] = HLM (same donors as S9) + NADPH + 5 uM GEF (Fig. 6b)
[14] = HLM (same donors as S9) + NADPH, midazolam 1 µM alone (Fig. 6b)

## C[C@@H](c1ccc(N)nc1)n1nnc2ncc(-c3cnn(C)c3)nc21 [Compound M4]
[1]; cytosol 0 mg/mL
  M4 average: 45.7 and 50.45 and 48.25
  [M4]: 45.1 and 46.3 and 50.7 and 50.2 and 47.8 and 48.7
[1]; cytosol 4 mg/mL
  M4 average: 17.35 and 19.85 and 21.35
  [M4]: 17.9 and 16.8 and 19.5 and 20.2 and 21.9 and 20.8
[1]; cytosol 10 mg/mL
  M4 average: 7.4 and 8.2 and 10.05
  [M4]: 7.5 and 7.3 and 8.2 and 10.2 and 9.9
[2]; HLM (same donors as S9) + NADPH, savolitinib 1 µM, 1 h (Fig. 6aii)
  [M4]: 59.25 nM and 71.3 nM and 48.9 nM
Recombinant CYP3A4-POR
  [M4] nM formed by recombinant CYPs: 208.8 nM and 197.55 nM and 216.7 nM
[3]; 0 min (Fig. 6cii)
  [M4]: 2.8 nM and 3 nM and 2.75 nM
[3]; 5 min (Fig. 6cii)
  [M4]: 3.1 nM and 3.9 nM and 3.3 nM
[3]; 10 min (Fig. 6cii)
  [M4]: 4.2 nM and 5.25 nM and 4 nM
[3]; 20 min (Fig. 6cii)
  [M4]: 4.6 nM and 6.95 nM and 4.95 nM
[3]; 40 min (Fig. 6cii)
  [M4]: 6.1 nM and 9.2 nM and 6.8 nM
[3]; 60 min (Fig. 6cii)
  [M4]: 7.5 nM and 10.55 nM and 8.1 nM

## Cc1ncc2n1-c1ccc(Cl)cc1C(c1ccccc1F)=NC2 [Midazolam]
Rat hepatocytes
  fu_ratHH: 0.543
In vitro [4]; HH_scaled_CLint,u
  CLint scaled: 90.5 mL/min/kg
In vitro [4]; Midazolam scaled CLint,u
  CLint scaled: 104 mL/min/kg
In vitro [4]; Scaled HH CLint,u
  CLint scaled: 62.8 mL/min/kg
In vitro [4]; Scaled HH CLint,u average
  CLint scaled: 51.2 mL/min/kg
[5]
  fu_HLM: 0.454
In vitro [6]
  Papp: 47.5 ×10⁻⁶ cm/s
[7]
  Scaled midazolam CLint,u: 761.569 mL/min/kg and 740.511 mL/min/kg
[7]; human, human liver microsomes, pH 7.4, Scaled midazolam CLint,u
  CLint scaled at 1 µM: 762 mL/min/kg
[8]; Fig. 4a,d
  NADPH_HLM_scaled_CLint,u: 614.71 mL/min/kg
[8]; HLM + NADPH, control without gefitinib (Fig. 3d)
  Midazolam CLint: 265.8 µL/min/mg and 269.7 µL/min/mg
[8]; HLM + NADPH, no gefitinib (Fig. 3a)
  Midazolam scaled CLint,u: 531.926 mL/min/kg and 593.803 mL/min/kg
[8]; HLM, cofactor NADPH (Fig. 5b)
  Scaled midazolam CLint,u: 703.964 mL/min/kg and 722.238 mL/min/kg
[8]; NADPH-HLM, individual determinations 1-3, Fig. 1
  Scaled HLM CLint,u: 632.553 mL/min/kg and 670.23 mL/min/kg
[8]; pH 7.4, HLM_NADPH CLint, 1 µM, single determination, Fig. 4a,d
  microsomal CLint at 1 µM: 295 µL/min/mg
[8]; pH 7.4, Midazolam CLint, HLM + NADPH, control without gefitinib (Fig. 3d)
  microsomal CLint at 1 µM: 288 µL/min/mg
[8]; pH 7.4, Midazolam scaled CLint,u, HLM + NADPH, no gefitinib (Fig. 3a)
  CLint scaled at 1 µM: 619 mL/min/kg
[8]; pH 7.4, Scaled HLM CLint,u average, NADPH-HLM, average, Fig. 1
  CLint scaled at 1 µM: 649 mL/min/kg
[8]; pH 7.4, Scaled HLM CLint,u, NADPH-HLM, individual determinations 1-3, Fig. 1
  CLint scaled at 1 µM: 643 mL/min/kg
[8]; pH 7.4, Scaled midazolam CLint,u, HLM, cofactor NADPH (Fig. 5b)
  CLint scaled at 1 µM: 693 mL/min/kg
[2]; [13]
  Midazolam CLint: 392.5 µL/min/mg and 377.3 µL/min/mg
  Percentage of midazolam alone: 121.498% and 119.228% and 122.262%
  microsomal CLint at 1 µM: 336 µL/min/mg
[2]; [14]
  Midazolam CLint: 329.2 µL/min/mg
  microsomal CLint at 1 µM: 276 µL/min/mg
[9]; Mid + GEF 5 µM (Fig. 5e)
  Midazolam CLint: 3292.07 µL/min/nmol and 3281.83 µL/min/nmol and 2734.43 µL/min/nmol
[9]; Mid alone (Fig. 5e)
  Midazolam CLint: 4061.76 µL/min/nmol and 4262.77 µL/min/nmol and 3511.63 µL/min/nmol
[10]; Mid + GEF 5 µM (Fig. 5f)
  Midazolam CLint: 19.6 µL/min/nmol and 13.9 µL/min/nmol and 18.8 µL/min/nmol
[10]; Mid alone (Fig. 5f)
  Midazolam CLint: 6.9 µL/min/nmol and 5.5 µL/min/nmol and 5.1 µL/min/nmol
[11]; HLM + NADH, control without gefitinib (Fig. 3d)
  Midazolam CLint: 23.9 µL/min/mg and 21.4 µL/min/mg
[11]; HLM, cofactor NADH (Fig. 5b)
  Scaled midazolam CLint,u: 248.867 mL/min/kg and 261.398 mL/min/kg
[11]; pH 7.4, HLM_NADH CLint, 1 µM, single determination, Fig. 4a,d
  microsomal CLint at 1 µM: 103 µL/min/mg
[11]; pH 7.4, Midazolam CLint, HLM + NADH, control without gefitinib (Fig. 3d)
  microsomal CLint at 1 µM: 14.7 µL/min/mg
[11]; pH 7.4, NADH_HLM_scaled_CLint,u, Fig. 4a,d
  CLint scaled at 1 µM: 213 mL/min/kg
[11]; pH 7.4, Scaled midazolam CLint,u, HLM, cofactor NADH (Fig. 5b)
  CLint scaled at 1 µM: 247 mL/min/kg
[12]; S9 + NADPH + 5 uM GEF (Fig. 6b)
  microsomal CLint at 1 µM: 150 µL/min/mg
[12]; S9 + NADPH, midazolam 1 µM alone (Fig. 6b)
  microsomal CLint at 1 µM: 77.2 µL/min/mg
